From article PMC12133102, “Deciphering the Physical Binding Mechanism of Enzyme–Photosensitizer Facilitates Catalysis-Augmented Photodynamic Therapy” (Research, 2025)

Target: T1, HSA (human serum albumin) (Homo sapiens, UniProt P02768)
T1 construct: gene ALB; commercial HSA (Shanghai Yuanye); amine-coupled to CM5 chip
Assay: SPR (Biacore T200, immobilized protein on CM5)
Assay type: binding

T1 sequence (P02768 25-609): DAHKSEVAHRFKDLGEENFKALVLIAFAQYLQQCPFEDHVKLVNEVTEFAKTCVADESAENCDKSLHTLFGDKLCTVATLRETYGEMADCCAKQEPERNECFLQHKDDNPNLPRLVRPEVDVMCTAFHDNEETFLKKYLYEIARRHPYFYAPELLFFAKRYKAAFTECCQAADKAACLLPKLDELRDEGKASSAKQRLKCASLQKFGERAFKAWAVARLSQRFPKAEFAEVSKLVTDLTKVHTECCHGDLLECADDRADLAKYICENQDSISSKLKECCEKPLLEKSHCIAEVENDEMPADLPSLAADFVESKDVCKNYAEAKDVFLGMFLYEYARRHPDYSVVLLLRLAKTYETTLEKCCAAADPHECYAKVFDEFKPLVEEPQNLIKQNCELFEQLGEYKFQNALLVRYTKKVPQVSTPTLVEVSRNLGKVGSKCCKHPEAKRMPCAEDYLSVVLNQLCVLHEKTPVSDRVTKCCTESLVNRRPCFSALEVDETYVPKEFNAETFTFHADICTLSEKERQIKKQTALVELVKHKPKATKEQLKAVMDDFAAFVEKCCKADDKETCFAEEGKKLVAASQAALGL

- Kd: 2120 nM
SMILES: C=Cc1c(C)c2cc3nc(c(CC(=O)O)c4[nH]c(cc5nc(cc1[nH]2)C(C)=C5CC)c(C)c4C(=O)O)[C@@H](CCC(=O)O)[C@@H]3C [Ce6]
